Test results published in PubChem BioAssay AID330 (DTP/NCI, 2004).
Values joined by “and” are separate entries in the source; they are usually repeats but may differ in a detail not shown here. Equal entries are not always repeated. Toxic doses and inconclusive results are not listed. How the source made its calls: active means survival T/C of 150% or more; inactive means T/C below 125% in these data.

System: P388 leukemia ip, CD2F1 mice, survival T/C
Test: NCI In Vivo Anticancer Drug Screen. Data for tumor model P388 Leukemia (intraperitoneal) in CD2F1 (CDF1) mice
Conditions: endpoint: median survival time, higher = longer survival
In short: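 Mice carrying the transplanted tumor received test compound or vehicle. Survival was recorded in each group, and the value is the treated-group measurement divided by that of the vehicle-treated control group.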

[1] = dose: 25.0 mg/kg/injection, schedule: Q04DX003 (ip), vehicle: saline with Tween-80
[2] = dose: 50.0 mg/kg/injection, schedule: Q04DX003 (ip), vehicle: saline with Tween-80
[3] = dose: 100.0 mg/kg/injection, schedule: Q04DX003 (ip), vehicle: saline with Tween-80
[4] = dose: 50.0 mg/kg/injection, schedule: Q01DX009 (ip), vehicle: Klucel (hydroxypropylcellulose) (HPC)
[5] = dose: 100.0 mg/kg/injection, schedule: Q01DX009 (ip), vehicle: Klucel (hydroxypropylcellulose) (HPC)
[6] = dose: 60.0 mg/kg/injection, schedule: Q01DX005 (ip), vehicle: saline
[7] = dose: 120.0 mg/kg/injection, schedule: Q01DX005 (ip), vehicle: saline
[8] = dose: 240.0 mg/kg/injection, schedule: Q01DX005 (ip), vehicle: saline
[9] = dose: 200.0 mg/kg/injection, schedule: Q01DX009 (ip), vehicle: Klucel (hydroxypropylcellulose) (HPC)
[10] = dose: 50.0 mg/kg/injection, schedule: Q01DX005 (ip), vehicle: Klucel (hydroxypropylcellulose) (HPC)
[11] = dose: 100.0 mg/kg/injection, schedule: Q01DX005 (ip), vehicle: Klucel (hydroxypropylcellulose) (HPC)
[12] = dose: 200.0 mg/kg/injection, schedule: Q01DX005 (ip), vehicle: Klucel (hydroxypropylcellulose) (HPC)
[13] = dose: 100.0 mg/kg/injection, schedule: Q01DX009 (ip), vehicle: saline with Tween-80
[14] = dose: 60.0 mg/kg/injection, schedule: Q01DX005 (ip), vehicle: saline with Tween-80
[15] = dose: 120.0 mg/kg/injection, schedule: Q01DX005 (ip), vehicle: saline with Tween-80
[16] = dose: 240.0 mg/kg/injection, schedule: Q01DX005 (ip), vehicle: saline with Tween-80
[17] = dose: 6.25 mg/kg/injection, schedule: Q01DX009 (ip), vehicle: saline with Tween-80
[18] = dose: 12.5 mg/kg/injection, schedule: Q01DX009 (ip), vehicle: saline with Tween-80
[19] = dose: 25.0 mg/kg/injection, schedule: Q01DX009 (ip), vehicle: saline with Tween-80
[20] = dose: 50.0 mg/kg/injection, schedule: Q01DX009 (ip), vehicle: saline with Tween-80
[21] = dose: 200.0 mg/kg/injection, schedule: Q04DX003 (ip), vehicle: saline with Tween-80
[22] = dose: 200.0 mg/kg/injection, schedule: Q01DX009 (ip), vehicle: saline with Tween-80

Measured: T/C

O=C(Cc1ccccc1)N1CCc2cc3c(cc2C1Cc1cc2c(cc1Br)OCO2)OCO3 (centres undefined)
inactive: dose: 12.5 mg/kg/injection, schedule: Q01DX001 (ip), vehicle: saline + alcohol 98 % of control | dose: 25.0 mg/kg/injection, schedule: Q01DX001 (ip), vehicle: saline + alcohol 99 % of control | dose: 50.0 mg/kg/injection, schedule: Q01DX001 (ip), vehicle: saline + alcohol 100 % of control

CC(=O)N1c2ccccc2Sc2cc(C(O)(C(F)(F)F)C(F)(F)F)ccc21
inactive: [1] 95 % of control | [2] 100 % of control | [3] 100 % of control

CCC(CCC(C)C1CCC2C3CC=C4CC(O)CCC4(C)C3CCC12C)C(C)C (centres undefined) (tested in a mixture with another compound)
inactive: [4] 105 % of control | [5] 90 % of control

C=CC1OCCC(C)O1 (centres undefined)
inactive: [6] 99 % of control | [7] 100 % of control | [8] 97 % of control

Cc1ccc(NC(=O)NCCCN2CCOCC2)cc1NC(=O)NCCCN1CCOCC1
inactive: [4] 104 % of control | [5] 100 % of control | [9] 96 % of control

Nc1nc(CON2C(=O)c3ccccc3C2=O)cs1
inactive: [10] 97 % of control | [11] 99 % of control | [12] 103 % of control

O=C(NC12CC3CC(CC(C3)C1)C2)OCCN1CCN(CCCN2c3ccccc3Sc3ccc(C(F)(F)F)cc32)CC1
inactive: dose: 25.0 mg/kg/injection, schedule: Q04DX002 (ip), vehicle: saline with Tween-80 97 % of control | dose: 50.0 mg/kg/injection, schedule: Q04DX002 (ip), vehicle: saline with Tween-80 101 % of control | dose: 100.0 mg/kg/injection, schedule: Q04DX002 (ip), vehicle: saline with Tween-80 104 % of control and 113 % of control

C[C@]12CC[C@H]3[C@@H](CCC4=CC(=O)CC[C@@]43C)[C@@H]1CC[C@@H]2OC(=O)Cc1ccc(N(CCCl)CCCl)cc1
inactive: [3] 112 % of control | dose: 264.0 mg/kg/injection, schedule: Q04DX003 (ip), vehicle: saline with Tween-80 109 % of control

CC(C)(C)N1COCCOC1
inactive: [13] 118 % of control

COC1(C)O[C@@]2(C)c3ccccc3C(=O)[C@@]2(c2ccccc2)O1 (some centres undefined)
inactive: [14] 104 % of control | [15] 97 % of control | [16] 97 % of control

O=S(=O)(Oc1cccc(C(F)(F)F)c1)c1cccc(C(F)(F)F)c1
inactive: [17] 100 % of control | dose: 6.25 mg/kg/injection, schedule: Q04DX003 (ip), vehicle: saline with Tween-80 100 % of control | [18] 91 % of control | dose: 12.5 mg/kg/injection, schedule: Q04DX003 (ip), vehicle: saline with Tween-80 100 % of control | [19] 91 % of control | [1] 100 % of control

N=C(N)SCc1ccc(CSC(=N)N)s1
inactive: dose: 7.5 mg/kg/injection, schedule: Q01DX009 (ip), vehicle: saline 107 % of control | dose: 15.0 mg/kg/injection, schedule: Q01DX009 (ip), vehicle: saline 101 % of control | dose: 30.0 mg/kg/injection, schedule: Q01DX009 (ip), vehicle: saline 117 % of control

Cn1c(=O)c2[nH]c(Cc3cccc(O)c3)nc2n(C)c1=O
inactive: dose: 25.0 mg/kg/injection, schedule: Q01DX009 (ip), vehicle: suspension in saline 99 % of control | dose: 50.0 mg/kg/injection, schedule: Q01DX009 (ip), vehicle: suspension in saline 96 % of control | dose: 100.0 mg/kg/injection, schedule: Q01DX009 (ip), vehicle: suspension in saline 92 % of control and 93 % of control | dose: 200.0 mg/kg/injection, schedule: Q01DX009 (ip), vehicle: suspension in saline 104 % of control | dose: 400.0 mg/kg/injection, schedule: Q01DX009 (ip), vehicle: suspension in saline 91 % of control

CC(Br)C(=O)c1ccc2cc(Br)c3ccccc3c2c1 (centres undefined)
inactive: [18] 100 % of control | [19] 106 % of control | [20] 116 % of control

Cc1n[nH]c2ccc([N+](=O)[O-])cc2c1=O
inactive: [17] 100 % of control | [18] 100 % of control | [19] 90 % of control | [2] 100 % of control | [3] 95 % of control | [21] 100 % of control

COC(=O)[C@]1(CC[N+](=O)[O-])N=C(c2ccccc2)O[C@@H]1C
inactive: [14] 105 % of control | [15] 109 % of control | [16] 113 % of control

S=c1[nH]c(Cl)c(Cl)cc1Cl
inactive: [20] 98 % of control | [13] 105 % of control | [22] 99 % of control

CC([OH2+])CNCCN.CC([OH2+])CNCCN.O=[N+]([O-])[O-].[Ni+2] (centres undefined)
inactive: dose: 3.13 mg/kg/injection, schedule: Q01DX009 (ip), vehicle: saline 87 % of control | dose: 6.25 mg/kg/injection, schedule: Q01DX009 (ip), vehicle: saline 88 % of control | dose: 12.5 mg/kg/injection, schedule: Q01DX009 (ip), vehicle: saline 102 % of control and 87 % of control

NNP(=O)(Oc1ccccc1)Oc1ccccc1
inactive: dose: 3.12 mg/kg/injection, schedule: Q01DX009 (ip), vehicle: saline with Tween-80 110 % of control | [17] 101 % of control | [18] 106 % of control | [19] 109 % of control and 110 % of control

O=C1NC(=S)NNC12CCCCC2
inactive: dose: 25.0 mg/kg/injection, schedule: Q01DX009 (ip), vehicle: Klucel (hydroxypropylcellulose) (HPC) 101 % of control | [4] 101 % of control and 108 % of control | [5] 112 % of control and 97 % of control | [9] 105 % of control (2×) and 113 % of control

COc1ccccc1/C=C\C1=CC(=O)CC(c2ccccc2OC)C1C (centres undefined)
inactive: dose: 50.0 mg/kg/injection, schedule: Q01DX001 (ip), vehicle: Klucel (hydroxypropylcellulose) (HPC) 104 % of control | dose: 100.0 mg/kg/injection, schedule: Q01DX001 (ip), vehicle: Klucel (hydroxypropylcellulose) (HPC) 100 % of control | dose: 200.0 mg/kg/injection, schedule: Q01DX001 (ip), vehicle: Klucel (hydroxypropylcellulose) (HPC) 91 % of control

CCOC1(C)OC2OC(COC(c3ccccc3)(c3ccccc3)c3ccccc3)C(OC(=O)c3ccccc3)C(OC(=O)c3ccccc3)C2O1 (centres undefined)
inactive: dose: 12.5 mg/kg/injection, schedule: Q01DX009 (ip), vehicle: distilled water + Tween-80 98 % of control | dose: 25.0 mg/kg/injection, schedule: Q01DX009 (ip), vehicle: distilled water + Tween-80 90 % of control | dose: 50.0 mg/kg/injection, schedule: Q01DX009 (ip), vehicle: distilled water + Tween-80 99 % of control

CC(C)(C)CC(C)(C)C/C=C/CN1C(=O)c2ccccc2S1(=O)=O
inactive: [10] 101 % of control | [11] 100 % of control | [12] 108 % of control

O=C(NCCF)Oc1cc(Cl)c(Cl)cc1Cl
inactive: dose: 6.25 mg/kg/injection, schedule: Q01DX005 (ip), vehicle: Klucel (hydroxypropylcellulose) (HPC) 106 % of control | dose: 12.5 mg/kg/injection, schedule: Q01DX005 (ip), vehicle: Klucel (hydroxypropylcellulose) (HPC) 107 % of control and 120 % of control

[Cl][Sn][Cl].c1cnc2c(c1)ccc1cccnc12
inactive: [3] 97 % of control | [21] 112 % of control

O=C1c2cccc(Cl)c2Cc2c(Cl)cccc21
inactive: dose: 100.0 mg/kg/injection, schedule: Q01DX001 (ip), vehicle: saline with Tween-80 105 % of control | dose: 200.0 mg/kg/injection, schedule: Q01DX001 (ip), vehicle: saline with Tween-80 99 % of control | dose: 400.0 mg/kg/injection, schedule: Q01DX001 (ip), vehicle: saline with Tween-80 92 % of control

Nn1nnnc1-c1ccccc1
inactive: [4] 96 % of control | [5] 100 % of control | [9] 95 % of control

O=C(NC(=O)C(F)(F)F)Nc1ccc(F)c(Cl)c1
inactive: [20] 96 % of control | [13] 105 % of control | [22] 104 % of control

COc1cc(CCNC(=O)CCN2C(=O)CCC2=O)cc(OC)c1OC
inactive: dose: 50.0 mg/kg/injection, schedule: Q01DX009 (ip), vehicle: saline 104 % of control | dose: 100.0 mg/kg/injection, schedule: Q01DX009 (ip), vehicle: saline 100 % of control | dose: 200.0 mg/kg/injection, schedule: Q01DX009 (ip), vehicle: saline 103 % of control

OCc1cnccc1Br
inactive: [6] 99 % of control | [7] 100 % of control | [8] 99 % of control
